In patent US20250243560A1, “METAL EXTRACTANT AND SEPARATION RECOVERY METHOD OF METAL IONS USING METAL EXTRACTANT” (FUJIFILM Corporation, priority 2022, published 2025):
Where two headings read alike, the source gives them in different places.

Assays:
[1] = Separation recovery method I, water phase W3 (Zr, Rh sulfates) mixed with kerosine oil phase of the metal extractant; conditions: maximum amount of metal ions extracted / total amount of the other metal ions extracted, mixing amount 0.7 equivalent
Method: (§1) In addition, each of sulfates of a combination of metal ions shown in Table 1-1 was dissolved in ultrapure water to prepare each of metal ion-containing aqueous solutions (W2) and (W3) including two or three kinds of metal ions.
12 mL of the extractant (Y1) with respect to 10 mL of the prepared metal ion-containing aqueous solution (W1) was added to a 30 mL vial tube, and the mixture was stirred using a stirrer tip at 25° C. for 30 minutes. In this case, the mixing amount (unit: equivalent) of the metal extractant with respect to the total content of metal ions to be coordinated (that have the same definition as the extracted metal ions; in Example 1, Co and Ni) was 0.5. […]
Regarding each of the water phases used in Examples and Comparative Examples and the water phases after the extraction, the pH was measured using a pH meter (SK-620 pH II, manufactured by SATOTECH), and each of the contents of dissolved metal ions was determined using an inductively coupled plasma-optical emission spectrometer (ICP-OES) (Optima 7300 D (trade name), manufactured by Perkin Elmer Co., Ltd.). Measured values of the pH of each of the water phases used in Examples and Comparative Examples and the content of dissolved metal ions in each of the water phases are shown in the column “Water Phase pH” of Table 1-2 and the column “Metal Ion Concentration (ppm)” of Table 1-1. […]

[2] = Separation recovery method I, water phase W2 (Mn, Co, Ni sulfates) mixed with kerosine oil phase of the metal extractant; conditions: for Selection Ratio: W2, maximum amount of metal ions extracted / total amount of the other metal ions extracted, mixing amount 0.4 equivalent
Method: as §1
(§2) 12 mL of the extractant (Y1) with respect to 10 mL of the prepared metal ion-containing aqueous solution (W1) was added to a 30 mL vial tube, and the mixture was stirred using a stirrer tip at 25° C. for 30 minutes. In this case, the mixing amount (unit: equivalent) of the metal extractant with respect to the total content of metal ions to be coordinated (that have the same definition as the extracted metal ions; in Example 1, Co and Ni) was 0.5. Next, a 10 M sodium hydroxide aqueous solution or a 10 M hydrochloric acid was added to adjust the pH of the mixed solution to a value shown in the column “pH during Mixing” of Table 1-2. Further, the solution was stirred at 25° C. for 30 minutes, and was left to stand at the same temperature for 1 hour. After verifying that the solution was separated into two layers of the organic phase (oil phase) and the water phase, the separated water phase was extracted, and the separation and recovery of the metal ions was performed. The metal ions extracted in Example 1 and the metal ions extracted in the maximum amount are shown in the column “Kind” and the column “Maximum Amount Extracted” of the column “Extracted Metal Ions” in Table 1-2, respectively.
(§3) Separation and recovery of metal ions according to Examples 2 to 4 and 8 and Comparative Examples 1 to 6 and 9 were performed using the same method as that of Example 1, except that the metal ion-containing aqueous solution and the metal extractant solution were changed to a combination shown in Table 1-1 and Table 1-2 (hereinafter, both of which are referred to as Table 1″), the pH during the mixing of the water phase and the oil phase was set to a value shown in the column “pH during Mixing” of Table 1-2, and the mixing amount (unit: equivalent) of the metal extractant with respect to the total content of metal ions to be coordinated was set to a value shown in the column “Mixing Amount” of Table 1-2 for mixing and standing. The metal ions extracted in each of Examples and the metal ions extracted in the maximum amount are shown in the column “Kind” and the column “Maximum Amount Extracted” of the column “Extracted Metal Ions” in Table 1-2, respectively.
(§4) Regarding each of the water phases used in Examples and Comparative Examples and the water phases after the extraction, the pH was measured using a pH meter (SK-620 pH II, manufactured by SATOTECH), and each of the contents of dissolved metal ions was determined using an inductively coupled plasma-optical emission spectrometer (ICP-OES) (Optima 7300 D (trade name), manufactured by Perkin Elmer Co., Ltd.). Measured values of the pH of each of the water phases used in Examples and Comparative Examples and the content of dissolved metal ions in each of the water phases are shown in the column “Water Phase pH” of Table 1-2 and the column “Metal Ion Concentration (ppm)” of Table 1-1. The maximum amount (ppm) of the metal ions extracted measured as described above was divided by the total amount (ppm) of the other metal ions extracted to calculate a ratio between the amounts thereof extracted. The result is shown in the column “Selection Ratio” of Table 1-2.

[3] = Acid dissociation constant pKa by neutralization titration; type: physicochemical; conditions: for metal extractant II pKa of a conjugate acid
Excerpt: An acid dissociation constant pKa of the metal extractant is not particularly limited, and an appropriate value for the kind, the number, and the like of the coordinating functional groups can be adopted. In the present invention, the pKa is a value measured by neutralization titration.
In the present invention, the pKa is a value measured by neutralization titration.
Regarding the synthesized or prepared metal extractant, the molecular weight and the pKa calculated using the above-described method are shown in Table 1-2.

[4] = Separation recovery method I, water phase W1 (Co, Ni sulfates) mixed with kerosine oil phase of the metal extractant; conditions: maximum amount of metal ions extracted / total amount of the other metal ions extracted, mixing amount 0.5 equivalent
Method: 95.4 g of cobalt (II) sulfate heptahydrate (manufactured by FUJIFILM Wako Pure Chemicals Corporation) and 95.7 g of nickel (II) sulfate heptahydrate (manufactured by FUJIFILM Wako Pure Chemicals Corporation) were added to a 1L measuring flask, were diluted with ultrapure water, and were stirred and dissolved at 30° C. As a result, a metal ion-containing aqueous solution (W1) including two kinds of metal ions was prepared.
as §2, §3
Regarding each of the water phases used in Examples and Comparative Examples and the water phases after the extraction, the pH was measured using a pH meter (SK-620 pH II, manufactured by SATOTECH), and each of the contents of dissolved metal ions was determined using an inductively coupled plasma-optical emission spectrometer (ICP-OES) (Optima 7300 D (trade name), manufactured by Perkin Elmer Co., Ltd.). Measured values of the pH of each of the water phases used in Examples and Comparative Examples and the content of dissolved metal ions in each of the water phases are shown in the column “Water Phase pH” of Table 1-2 and the column “Metal Ion Concentration (ppm)” of Table 1-1. The maximum amount (ppm) of the metal ions extracted measured as described above was divided by the total amount (ppm) of the other metal ions extracted to calculate a ratio between the amounts thereof extracted. […]

[5] = Separation recovery method II, water phase W4 (Co, Ni sulfates with lithium chloride) mixed with kerosine oil phase of the metal extractant; conditions: for Selection Ratio: W4, maximum amount of metal ions extracted / total amount of the other metal ions extracted, mixing amount 0.5 equivalent
Method: 200 g of lithium chloride (manufactured by FUJIFILM Wako Pure Chemical Corporation), 95.4 g of cobalt (II) sulfate heptahydrate (manufactured by FUJIFILM Wako Pure Chemicals Corporation), and 95.7 g of nickel (II) sulfate heptahydrate (manufactured by FUJIFILM Wako Pure Chemicals Corporation) were added to a 1L measuring flask, were diluted with ultrapure water, and were stirred and dissolved at 30° C. As a result, a metal ion-containing aqueous solution (W4) including two kinds of metal ions was prepared. In this aqueous solution, in the two kinds of metal ions (cobalt and nickel), complex ions to which halide ions were coordinated were formed.
12 mL of the extractant (Y3) with respect to 10 mL of the prepared metal ion-containing aqueous solution (W4) was added to a 30 mL vial tube, and the mixture was stirred using a stirrer tip at 25° C. for 30 minutes. In this case, the mixing amount (unit: equivalent) of the metal extractant to the total content of the metal ions was 0.5. Next, a 10 M sodium hydroxide aqueous solution or a 10 M hydrochloric acid was added to adjust the pH of the mixed solution to a value shown in the column “pH during Mixing” of Table 1-2. Further, the solution was stirred at 25° C. for 30 minutes, and was left to stand at the same temperature for 1 hour. After verifying that the solution was separated into two layers of the organic phase (oil phase) and the water phase, the separated water phase was extracted, and the separation and recovery of the metal ions was performed. The metal ions extracted in Example 5 and the metal ions extracted in the maximum amount are shown in the column “Kind” and the column “Maximum Amount Extracted” of the column “Extracted Metal Ions” in Table 1-2, respectively.
The separation and recovery of the metal ions according to Examples 6 and 7 and Comparative Examples 7 and 8 was performed using the same method as that of Example 5, except that the metal ion-containing aqueous solution and the extractant solution were changed to a combination shown in Table 1-2, and the pH during the mixing of the water phase and the oil phase was set to a value shown in the column “pH during Mixing” of Table 1 for mixing and standing. The metal ions extracted in each of Examples and the metal ions extracted in the maximum amount are shown in the column “Kind” and the column “Maximum Amount Extracted” of the column “Extracted Metal Ions” in Table 1-2, respectively.
as §4

[6] = room temperature, concentration 310 mM
Method: Each of the synthesized or prepared metal extractants was added to a 100 mL measuring flask, and was diluted using kerosine (manufactured by FUJIFILM Wako Pure Chemicals Corporation) at room temperature. As a result, metal extractant solutions (Y1) to (Y6) and (Ycl) to (Yc9) (concentration: 310 mM) including the metal extractants were prepared, respectively.

Row | Molecule | pKa ([3]; read-out: pKa) | Selection Ratio [2] | Selection Ratio [4] | Selection Ratio [5] | other results
1 | CCCCC(CC)CC(C(=O)O)N(CCN(CC(CC)CCCC)C(CC(CC)CCCC)C(=O)O)CC(CC)CCCC (stereo not drawn) [E-1] | 6.1 | 20 | 10 |  | Selection Ratio [1]: 6.7
2 | Versatic acid 10 [VA-10] |  | 0.7 |  |  | selectivity of the Mn ions extracted in the maximum amount ([2]; W2, in words): low; pKa [3]: 7.9
3 | CCCCC(CC)CN(CCN(CC(CC)CCCC)CC(CC)CCCC)CC(CC)CCCC (stereo not drawn) [E-3] | 11.1 |  |  | 5.0 | 
4 | CCCCC(CC)CN(CCN(CC(CC)CCCC)C(CCCOCCOC)C(=O)O)C(CCCOCCOC)C(=O)O (stereo not drawn) [E-6] | 6.2 |  | 5.0 |  | 
5 | CCCCC(CC)CCC(C(=O)O)N(CCN(CC(CC)CCCC)C(CCC(CC)CCCC)C(=O)O)CC(CC)CCCC (stereo not drawn) [E-2] | 6.3 |  | 4.0 |  | 
6 | CCCCC(CC)CN(CC(CC)CCCC)CC(CC)CCCC (stereo not drawn) [Tris-2-EHA, tris(2-ethylhexyl)amine] | 5.2 |  |  | 1.5 | 
7 | CCCCCCCCCN(CCCCCCCCC)CCN(CCCCCCCCC)CCCCCCCCC [E-4] | 11.4 |  |  | 3.3 | 
8 | CCCCC(CC)CN(CC(CC)CCCC)CC1CCC(CN(CC(CC)CCCC)CC(CC)CCCC)CC1 (stereo not drawn) [E-5] | 11.5 |  |  | 4.0 | 
9 | CCCCC(CC)COP(=O)(O)CC(CC)CCCC (stereo not drawn) [PC-88A, mono-2-ethylhexyl(2-Ethylhexyl)phosphonate] |  | 1.4 |  |  | selectivity of the Mn ions extracted in the maximum amount ([2]; W2, in words): low
10 | O=C(O)CN(CCN(CC(=O)O)CC(=O)O)CC(=O)O [EDTA, ethylenediaminetetraacetic acid] | 0.9 |  |  |  | dissolution in kerosine [6]: not able to be dissolved in kerosine; extraction of metal ions to the oil phase ([2]; W2, in words): not able to be extracted

Second part, led by results:

Row | pKa ([3]; read-out: pKa) | Molecule | Selection Ratio [2] | Selection Ratio [4] | Selection Ratio [5] | other results
11 | 13.4 | CCCCC(CC)COCCOCC(CC)CCCC (stereo not drawn) [T-4] |  |  | 1.5 | amount of the metal ions extracted in the maximum amount ([5]; W4, in words): not sufficient
12 | 6 | CCCCC(CC)CN(CC(CC)CCCC)C(=O)CN(CCN(CC(=O)O)CC(=O)N(CC(CC)CCCC)CC(CC)CCCC)CC(=O)O (stereo not drawn) [T-1] | 0.5 |  |  | selectivity of the Mn ions extracted in the maximum amount ([2]; W2, in words): low
13 | 6.1 | CCCCC(CC)CC(C(=O)O)N(CCC(C)SC)CCN(CCC(C)SC)C(CC(CC)CCCC)C(=O)O (stereo not drawn) [T-5] |  | 1.2 |  | 
14 | 5.8 | CCCCC(CC)CC(OCCOC(CC(CC)CCCC)C(=O)O)C(=O)O (stereo not drawn) [T-3] |  | 1.1 |  | 
15 | 5.2 | CCCCC(CC)CN(CC(CC)CCCC)C(=O)CNCC(=O)O (stereo not drawn) [T-2] | 0.6 |  |  | 
